In patent US10947289B2, “Glyco-modified atrial natriuretic peptide” (priority 2013, dated 2021):
Where two headings read alike, the source gives them in different places.

Target: T1, human GC-A (Homo sapiens, UniProt P16066)
T1 construct: expressed in transfected cells; host or cells: CHO cells
T1 sequence (P16066 33-1061): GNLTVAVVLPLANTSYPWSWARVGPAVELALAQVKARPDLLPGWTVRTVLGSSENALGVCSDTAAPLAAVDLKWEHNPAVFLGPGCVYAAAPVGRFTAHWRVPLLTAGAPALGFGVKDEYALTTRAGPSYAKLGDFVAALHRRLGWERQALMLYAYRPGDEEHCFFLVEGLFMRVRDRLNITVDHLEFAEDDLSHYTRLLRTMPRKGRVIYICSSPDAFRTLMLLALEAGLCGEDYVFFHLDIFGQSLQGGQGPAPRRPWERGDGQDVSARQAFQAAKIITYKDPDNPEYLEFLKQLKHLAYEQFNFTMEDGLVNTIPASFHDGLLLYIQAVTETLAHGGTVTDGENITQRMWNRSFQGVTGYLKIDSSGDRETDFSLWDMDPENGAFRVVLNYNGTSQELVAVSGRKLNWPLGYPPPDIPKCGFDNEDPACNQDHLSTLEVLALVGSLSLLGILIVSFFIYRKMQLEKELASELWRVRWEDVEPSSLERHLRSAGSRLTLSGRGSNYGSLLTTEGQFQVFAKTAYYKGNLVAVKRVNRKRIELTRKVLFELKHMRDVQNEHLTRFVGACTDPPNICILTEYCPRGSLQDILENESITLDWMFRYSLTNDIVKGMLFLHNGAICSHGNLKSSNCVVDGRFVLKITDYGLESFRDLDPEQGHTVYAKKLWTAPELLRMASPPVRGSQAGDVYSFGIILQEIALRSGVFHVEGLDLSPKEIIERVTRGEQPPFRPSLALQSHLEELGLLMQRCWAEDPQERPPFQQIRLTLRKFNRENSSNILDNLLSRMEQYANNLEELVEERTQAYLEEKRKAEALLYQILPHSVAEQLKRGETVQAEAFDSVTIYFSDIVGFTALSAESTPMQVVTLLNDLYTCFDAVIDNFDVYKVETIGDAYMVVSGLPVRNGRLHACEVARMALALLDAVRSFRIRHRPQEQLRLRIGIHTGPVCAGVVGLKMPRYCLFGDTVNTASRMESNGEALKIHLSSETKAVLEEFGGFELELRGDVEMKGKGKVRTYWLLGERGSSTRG
Assay: cGMP elevating activity in CHO/human GC-A cells (Test Example 1)
Assay type: cell-based
Experimental: The cGMP elevating activity of each modified peptide prepared in Example 2 was measured by the following method:
CHO/human GC-A cells, which are CHO cells constitutively expressing human GC-A, were suspended at 2×10^5 cells/ml in α-MEM, 10% FBS, and 1% penicillin-streptomycin, inoculated at 20 μl/well (4×10^3 cells/well) onto a 384-well plate (Corning, 3826), and cultured overnight in a CO2 incubator. On the next day, the medium was removed from this plate, and then, 1.6 mM IBMX/KRB buffer was added thereto at 10 μl/well. The mixture was stirred on a plate shaker and then incubated at room temperature for 10 minutes. […] The mixture was stirred on a plate shaker and then incubated for 15 minutes in a CO2 incubator. Thereafter, a lysis buffer (50 mM phosphate buffer, pH 7.0, and 1% Triton X-100) was added thereto at 5 μl/well. The cells were lysed by stirring for 10 minutes on a plate shaker. Subsequently, the cGMP levels in the cell lysates were measured by use of a cGMP kit (manufactured by Cisbio Bioassays). Specifically, to a 384-well plate (Greiner, 784076), 5 μl/well of a diluent attached to the kit, 5 μl/well of the cell lysate, 5 μl/well of cGMP-d2, and 5 μl/well of anti cGMP-Cryptate were added. The mixture was stirred on a plate shaker and then incubated overnight at 4° C. in the dark, followed by the measurement of homogeneous time-resolved fluorescence using RubyStar (manufactured by BMG LABTECH JAPAN Ltd.). The activity value (T/C) of the test substance at each concentration was calculated when the activity value of a well supplemented with only a solvent was defined as 0 and the activity value of a well supplemented with 1 nM ANP was defined as 1.

Compound | EC50 [nM] | EC50 (CHO/human GC-A cells, concentration at T/C=0.5, 15 minutes incubation, read-out: EC50) [nM] | Emax (maximum T/C in range 0.01-100 nM, solvent only = 0, 1 nM ANP = 1)
CC[C@H](C)[C@@H]1NC(=O)[C@H](CCCNC(=N)N)NC(=O)[C@H](CC(=O)O)NC(=O)[C@H](CCSC)NC(=O)[C@H](CCCNC(=N)N)NC(=O)CNC(=O)CNC(=O)[C@H](Cc2ccccc2)NC(=O)[C@@H](NC(=O)[C@H](CO)NC(=O)[C@H](CO)NC(=O)[C@H](CCCNC(=N)N)NC(=O)[C@H](CCCNC(=N)N)NC(=O)[C@H](CC(C)C)NC(=O)[C@H](CO)NC(=O)CCOCCOCCOCCOCCOCCOCCOCCOCCOCCOCCOCCOCCNC(=O)CCOCCOCCOCCOCCOCCOCCOCCOCCOCCOCCOCCOCCNC(=O)[C@H](CC(=O)N[C@@H]2O[C@H](CO)[C@@H](O[C@@H]3O[C@H](CO)[C@@H](O[C@@H]4O[C@H](CO[C@H]5O[C@H](CO)[C@@H](O)[C@H](O)[C@@H]5O[C@@H]5O[C@H](CO)[C@@H](O[C@@H]6O[C@H](CO[C@]7(C(=O)O)C[C@H](O)[C@@H](NC(C)=O)[C@H]([C@H](O)[C@H](O)CO)O7)[C@H](O)[C@H](O)[C@H]6O)[C@H](O)[C@H]5NC(C)=O)[C@@H](O)[C@H](O[C@H]5O[C@H](CO)[C@@H](O)[C@H](O)[C@@H]5O[C@@H]5O[C@H](CO)[C@@H](O[C@@H]6O[C@H](CO[C@]7(C(=O)O)C[C@H](O)[C@@H](NC(C)=O)[C@H]([C@H](O)[C@H](O)CO)O7)[C@H](O)[C@H](O)[C@H]6O)[C@H](O)[C@H]5NC(C)=O)[C@@H]4O)[C@H](O)[C@H]3NC(C)=O)[C@H](O)[C@H]2NC(C)=O)NC(=O)CO[C@@H]2O[C@H](CO)[C@@H](O[C@@H]3O[C@H](CO)[C@@H](O[C@@H]4O[C@H](CO[C@H]5O[C@H](CO)[C@@H](O)[C@H](O)[C@@H]5O[C@@H]5O[C@H](CO)[C@@H](O[C@@H]6O[C@H](CO[C@]7(C(=O)O)C[C@H](O)[C@@H](NC(C)=O)[C@H]([C@H](O)[C@H](O)CO)O7)[C@H](O)[C@H](O)[C@H]6O)[C@H](O)[C@H]5NC(C)=O)[C@@H](O)[C@H](O[C@H]5O[C@H](CO)[C@@H](O)[C@H](O)[C@@H]5O[C@@H]5O[C@H](CO)[C@@H](O[C@@H]6O[C@H](CO[C@]7(C(=O)O)C[C@H](O)[C@@H](NC(C)=O)[C@H]([C@H](O)[C@H](O)CO)O7)[C@H](O)[C@H](O)[C@H]6O)[C@H](O)[C@H]5NC(C)=O)[C@@H]4O)[C@H](O)[C@H]3NC(C)=O)[C@H](O)[C@H]2NC(C)=O)CSSC[C@@H](C(=O)N[C@@H](CC(N)=O)C(=O)N[C@@H](CO)C(=O)N[C@@H](Cc2ccccc2)C(=O)N[C@@H](CCCNC(=N)N)C(=O)N[C@@H](Cc2ccc(O)cc2)C(=O)O)NC(=O)CNC(=O)[C@H](CC(C)C)NC(=O)CNC(=O)[C@H](CO)NC(=O)[C@H](CCC(N)=O)NC(=O)[C@H](C)NC(=O)CNC1=O [Compound 2-28, SG-(SG-)Asn-PEG(11)-PEG(11)-hANP(1-28)] | 0.31 |  | 
[(SG-)Cys-Gly]5-hANP(1-28) [Compound 2-17] |  | 35 | 0.70
CC[C@H](C)[C@@H]1NC(=O)[C@H](CCCNC(=N)N)NC(=O)[C@H](CC(=O)O)NC(=O)[C@H](CCSC)NC(=O)[C@H](CCCNC(=N)N)NC(=O)CNC(=O)CNC(=O)[C@H](Cc2ccccc2)NC(=O)[C@@H](NC(=O)[C@H](CO)NC(=O)[C@H](CO)NC(=O)[C@H](CCCNC(=N)N)NC(=O)[C@H](CCCNC(=N)N)NC(=O)[C@H](CC(C)C)NC(=O)[C@H](CO)NC(=O)CCOCCOCCOCCOCCNC(=O)CCSC2CC(=O)N(CCC(=O)N[C@@H](CCC(=O)NCCO[C@@H]3O[C@H](CO)[C@@H](O[C@@H]4O[C@H](CO)[C@@H](O[C@@H]5O[C@H](CO[C@H]6O[C@H](CO)[C@@H](O)[C@H](O)[C@@H]6O[C@@H]6O[C@H](CO)[C@@H](O[C@@H]7O[C@H](CO[C@]8(C(=O)O)C[C@H](O)[C@@H](NC(C)=O)[C@H]([C@H](O)[C@H](O)CO)O8)[C@H](O)[C@H](O)[C@H]7O)[C@H](O)[C@H]6NC(C)=O)[C@@H](O)[C@H](O[C@H]6O[C@H](CO)[C@@H](O)[C@H](O)[C@@H]6O[C@@H]6O[C@H](CO)[C@@H](O[C@@H]7O[C@H](CO[C@]8(C(=O)O)C[C@H](O)[C@@H](NC(C)=O)[C@H]([C@H](O)[C@H](O)CO)O8)[C@H](O)[C@H](O)[C@H]7O)[C@H](O)[C@H]6NC(C)=O)[C@@H]5O)[C@H](O)[C@H]4NC(C)=O)[C@H](O)[C@H]3NC(C)=O)C(=O)NCCO[C@@H]3O[C@H](CO)[C@@H](O[C@@H]4O[C@H](CO)[C@@H](O[C@@H]5O[C@H](CO[C@H]6O[C@H](CO)[C@@H](O)[C@H](O)[C@@H]6O[C@@H]6O[C@H](CO)[C@@H](O[C@@H]7O[C@H](CO[C@]8(C(=O)O)C[C@H](O)[C@@H](NC(C)=O)[C@H]([C@H](O)[C@H](O)CO)O8)[C@H](O)[C@H](O)[C@H]7O)[C@H](O)[C@H]6NC(C)=O)[C@@H](O)[C@H](O[C@H]6O[C@H](CO)[C@@H](O)[C@H](O)[C@@H]6O[C@@H]6O[C@H](CO)[C@@H](O[C@@H]7O[C@H](CO[C@]8(C(=O)O)C[C@H](O)[C@@H](NC(C)=O)[C@H]([C@H](O)[C@H](O)CO)O8)[C@H](O)[C@H](O)[C@H]7O)[C@H](O)[C@H]6NC(C)=O)[C@@H]5O)[C@H](O)[C@H]4NC(C)=O)[C@H](O)[C@H]3NC(C)=O)C2=O)CSSC[C@@H](C(=O)N[C@@H](CC(N)=O)C(=O)N[C@@H](CO)C(=O)N[C@@H](Cc2ccccc2)C(=O)N[C@@H](CCCNC(=N)N)C(=O)N[C@@H](Cc2ccc(O)cc2)C(=O)O)NC(=O)CNC(=O)[C@H](CC(C)C)NC(=O)CNC(=O)[C@H](CO)NC(=O)[C@H](CCC(N)=O)NC(=O)[C@H](C)NC(=O)CNC1=O (stereo partly shown) [Compound 2-31, SG-(SG-)Gln*-Mal-PEG(3)-hANP(1-28)] | 0.31 |  | 
